The source of these data is patent US20220249431A1, “ANTIMYCOTIC” (Karl-Franzens-Universität Graz, priority 2019, published 2022).

The subject of one assay is C. albicans biofilm. Put plainly: Biofilm inhibition concentration (CTB staining). It counts as cell-based. The following applies: Candida albicans; C. albicans biofilm formation reduced to 50% of untreated control; read-out: BIC50. On the procedure:
The biofilm inhibition concentration (BIC) was determined as described in […] et al. (J Antimicrob Chemother 69(2014): 1035-1044). In short, RPMI medium was inoculated with an overnight culture to an OD (optical density) of 0.1, transferred to a U-bottom 96-well plate (MLS, Belgium) and treated with serial dilutions of substances. After the adherence phase (1 h, 37° C.), supernatant was removed, adherent cells were washed with PBS and fresh media (including substances) was added. Biofilms were then allowed to grow for 24 h at 37° C. Formed biofilms were then analyzed for their metabolic activity. Therefore, C. albicans biofilm cells were treated with CTB (cell titer Blue®; Promega, Germany), diluted 1:100 in PBS. After incubation for 1 h at 37° C. in the dark fluorescence intensity was measured using a 96-well plate reader (Ex: 535, Em: 590, sens 65). […] Sigma, Germany or ABCR, Germany) was used instead. Thereby, biofilm cells were treated with an XTT solution (0.25 mg/mL XTT+0.1 μM menadione in PBS) at 37° C. in the dark and OD490 was measured. As for MIC, biofilm inhibition was analyzed by setting the corresponding control to 100%. Different flavones were randomly chosen and tested for their effects on planktonic cells and biofilms of C. albicans and C. glabrata to determine corresponding IC50 values (the concentration that is required to reduce growth (minimal inhibitory concentration=MIC) or biofilm formation (biofilm inhibitory concentration=BIC) to 50% compared to the untreated control).

Another assay concerns C. glabrata biofilm. Briefly: Biofilm inhibition concentration (XTT). It counts as cell-based, Candida glabrata. The settings on record: Nakaseomyces glabratus; C. glabrata biofilm formation reduced to 50% of untreated control; read-out: BIC50. On the procedure: In short, RPMI medium was inoculated with an overnight culture to an OD (optical density) of 0.1, transferred to a U-bottom 96-well plate (MLS, Belgium) and treated with serial dilutions of substances. After the adherence phase (1 h, 37° C.), supernatant was removed, adherent cells were washed with PBS and fresh media (including substances) was added. Biofilms were then allowed to grow for 24 h at 37° C. Formed biofilms were then analyzed for their metabolic activity. Therefore, C. albicans biofilm cells were treated with CTB (cell titer Blue®; Promega, Germany), diluted 1:100 in PBS. […] Sigma, Germany or ABCR, Germany) was used instead. Thereby, biofilm cells were treated with an XTT solution (0.25 mg/mL XTT+0.1 μM menadione in PBS) at 37° C. in the dark and OD490 was measured.
In general terms: Tetrazolium assays rely on reduction of a dye to a coloured formazan, in cell work by metabolically active cells.

The test system of another assay is C. albicans biofilms. Briefly: Checkerboard assay, biofilm inhibition (CTB staining). It counts as cell-based, Candida albicans. On the procedure: The biofilm inhibition concentration (BIC) was determined as described in Delattin N et al. (J Antimicrob Chemother 69(2014): 1035-1044). In short, RPMI medium was inoculated with an overnight culture to an OD (optical density) of 0.1, transferred to a U-bottom 96-well plate (MLS, Belgium) and treated with serial dilutions of substances. After the adherence phase (1 h, 37° C.), supernatant was removed, adherent cells were washed with PBS and fresh media (including substances) was added. Biofilms were then allowed to grow for 24 h at 37° C.
Formed biofilms were then analyzed for their metabolic activity. Therefore, C. albicans biofilm cells were treated with CTB (cell titer Blue®; Promega, Germany), diluted 1:100 in PBS. After incubation for 1 h at 37° C. in the dark fluorescence intensity was measured using a 96-well plate reader (Ex: 535, Em: 590, sens 65). For C. glabrata, XTT (2H-Tetrazolium, 2,3-bis(2-methoxy-4-nitro-5-sulfophenyl)-5-[(phenylamino)carbonyl]-hydroxide; Sigma, Germany or ABCR, Germany) was used instead. Thereby, biofilm cells were treated with an XTT solution (0.25 mg/mL XTT+0.1 μM menadione in PBS) at 37° C. in the dark and OD490 was measured.
For synergy testing of different combinations, checkerboard assays were performed. […] Antifungal activity of substances alone or in combination was determined by setting the corresponding control to 100%.

Turning to `O=c1c(O)c(-c2ccccc2)oc2ccc(O)cc12` [3,6-dihydroxyflavone], the figures for the IC50 in the assay on C. albicans biofilm and in the assay with C. glabrata biofilm were 55.2 ± 8.1 µM and 23.4 ± 9.7 µM, respectively. The “effect on activity of caspofungin, biofilm formation” value in the assay on C. albicans biofilms (39 nM Caspo, 3.1 μM 3,6-DHF) is listed as “enhances the activity of Caspofungin”. In addition, in the assay on C. albicans biofilms (0.16 μM AMB, 25 μM 3,6-DHF), the “combination with AMB on biofilms in vitro” value was “acts synergistically with AMB”.
